# Measured values taken from patent US10827753B2, “Compositions and methods for controlling nematodes” (Monsanto Technology LLC, priority 2007, dated 2020).
# Marks after values point to notes of the source that are not given here.
# How the values were obtained:
# [1] = tested on: Heterodera glycines (SCN); assay: Seed treatment test of soybean cyst nematode on soybean plants; format: in vivo; conditions: test a
# Experimental: (§1) For a given concentration the chemical is dissolved in 500 ul of acetone and one gram of cucumber seed (RKN test) or soybean seed (SCN test) is added (e.g., 20 mg active ingredient in 500 ul acetone plus 1 gram of seed). The seed solutions are agitated until all seeds were thoroughly covered with the chemical solution. The acetone is then allowed to evaporate by air drying the seeds. The seeds are planted in 2-inch pots containing sandy soil and then the pots are inoculated with 1000 Meloidogyne incognita (RKN) or 1000 Heterodera glycines (SCN) eggs per pot three days after planting. Plants are rated for galling 14 days after egg inoculation for RKN or 28 days after egg inoculation for SCN.
# [2] = tested on: Meloidogyne incognita (RKN); assay: Seed treatment test of root knot nematode on cucumber plants; format: in vivo; conditions: 10 mg ai/gram seed, cucumber seeds (positive control)
# Experimental: as §1
# [3] = tested on: mice; conditions: cited from earlier work
substance,measurement,setting,value
abamectin,percent cyst reduction relative to control blank treatment,[1]; 0.375 mg al/gram seed,−14^a percent
same,percent cyst reduction relative to control blank treatment,[1]; 1.5 mg al/gram seed,−24^a percent
same,percent control (galling reduction) relative to the control blank treatment,[2],84%
same,oral LD50 in mice,[3],13.6 mg/kg
